{
  "source": "patent US20240285553A1",
  "about": "“METHODS TO MODULATE MITOPHAGY WITH SREBP SIGNALING PATHWAY ACTIVATORS” (THE TRUSTEES OF INDIANA UNIVERSITY, priority 2021, published 2024)",
  "key": {"[1]": {"tested_on": "Sugen/hypoxia-induced PAH in rats", "assay": "Sugen/hypoxia (SuHx) rat model of PAH", "type": "in vivo", "experimental": "FIGS. 10A-10C-R-propranolol attenuates rodent PAH. Sugen (20 mg/kg, IP) injection was administered to rats and then they were exposed to 3 weeks of hypoxia (10% FiO2) and then placed in normoxia (21% FiO2) for 4 weeks to develop severe pulmonary arterial hypertension (FIG. 10A is a schematic of the experimental procedure). Rats were then administered either r-propranolol (5 mg/kg/day, IP) for the last 4 weeks or r-propranolol (10 mg/kg/day, IP) for the last 2 weeks or vehicle for the last 4 weeks. Rats with vehicle exposure developed severe PAH at the end of the protocol as confirmed by right ventricular systolic pressures (RVSP; FIG. 10B) and surrogate measures of RV hypertrophy (RV/(LV+S); FIG. 10C).\nFIGS. 15A-15M-R-propranolol attenuates rodent PAH. Sugen (20 mg/kg, IP) injection was administered to rats and then they were exposed to 3 weeks of hypoxia (10% FiO2) and then placed in normoxia (21% FiO2) for 4 weeks to develop severe pulmonary arterial hypertension (FIG. 15A is a schematic of the experimental procedure). Rats receiving Sugen (SuHx) for three weeks of 7 weeks were then administered either r-propranolol (5 mg/kg/day, IP) for the last 4 weeks or r-propranolol (10 mg/kg/day, IP) for the last 2 weeks or vehicle for the last 4 weeks. SuHx treated rats (but not controls) with vehicle exposure developed severe PAH at the end of the protocol as confirmed by right ventricular pressures (RVP; FIG. 15B) and right ventricular systolic pressures (RVSP; FIG. 15C, lane 1: control; lane 2: control+r-propranolol 5 mg; lane 3: SuHx 3 wk; lane 4: SuHx 7 wk; lane 5: SuHx+r-propranolol 5 mg; SuHx+r-propranolol 10 mg) and surrogate measures of RV hypertrophy (FIGS. 15D-15J). […] FIG. 15K show the PA thickness of SuHx treated rats with vehicle exposure vs r-propranolol exposure. FIG. 15L show the RV cross-sectional thickness of SuHx treated rats with vehicle exposure vs r-propranolol exposure.\nR-propranolol attenuated rodent PAH. Rats were administered a one-time sugen (20 mg/kg, IP) injection and exposed to 3 weeks of hypoxia (10% FiO2) and then placed in normoxia (21% FiO2) for 4 weeks. […] In the last 4 week normoxic period, rats were administered either r-propranolol (5 mg/kg/day, IP) for the last 4 weeks or r-propranolol (10 mg/kg/day, IP) for the last 2 weeks or vehicle for the last 4 weeks. Rats with vehicle exposure developed severe PAH at the end of the protocol as confirmed by right ventricular systolic pressures (RVSP) and surrogate measures of RV hypertrophy (RV/(LV+S))."}, "[2]": {"tested_on": "PAEC / ECs", "assay": "Immunofluorescence microscopy of Tom20 and lysosomal marker LAMP1 (mitophagy)", "type": "cell-based, human", "details": "ECs", "description": "Immunofluorescence Microscopy. Cells were fixed with 4% Formaldehyde (Electron Microscopy Sciences, #C993M24) and permeabilized in the presence of 0.1% Triton X-100 (Sigma). Full-length SREBP1 was stained using mouse monoclonal antibody from Santa Cruz Biotechnology (Cat #sc-365513). Whereas nuclear SREBP1 was detected using antibody from Novus biological (Cat #NB100-2215). […] Tom20 and LAMP1 antibodies were purchased from Cell Signaling (Cat #42406S and 15665S, respectively). Images were captured on an inverted fluorescent microscope (Leica).\n(§1) First, degradation of a mitochondrial marker (TOM20) was evaluated as a bio-chemical marker of mitophagy induction.\nFixed cells were stained with Tom20 and Lamp1 and the fluorescence images were captured on a fluorescence microscope."}, "[3]": {"tested_on": "beta-adrenergic receptor", "details": "cited from earlier work"}, "[4]": {"tested_on": "SREBP1", "assay": "Western blot of SREBP1, SCD and NCEH1 (SREBP1 activation)", "type": "cell-based, human", "details": "western blot", "description": "Western blot. Cell lysates were resolved on a SDS PAGE pre-cast gel (Invitrogen) and resolved proteins were transferred on to a PVDF membrane for further detection of proteins using specific antibodies. Antibodies for SREBP1 were purchased from Santa Cruz Biotechnology (Cat #sc-365513) and Novus biological (Cat #NB100-2215). SCD antibody was purchased from Santa Cruz Biotechnology (Cat #sc-58420). Tom20 and LAMP1 antibodies were purchased from Cell Signaling (Cat #42406S and 15665S, respectively). […]"}, "[5]": {"tested_on": "ECs", "assay": "Transmission electron microscopy for mitophagy", "type": "cell-based, human", "details": "10 uM propranolol, 10 uM R-propranolol or 0.1 uM JW480 for 12 hours", "experimental": "Transmission Electron Microscopy. […] Thin sections from these fixed cell blocks were visualized on Tecnai Spirit (ThermoFisher) TEM Microscope. Images captured were analyzed.\nTEM evidence. […] ECs exposed to these drugs were fixed and the images were captured on a TEM."}, "[6]": {"tested_on": "HF-PH mice", "assay": "High-fat diet AKR/J HF-PH mouse model", "type": "in vivo", "details": "4 weeks, implanted mini osmotic pump, vs vehicle", "description": "FIG. 14: Using a mouse model fed a high-fat diet, AKR/J mice develop obesity, insulin resistance, heart failure with preserved ejection fraction, and pulmonary hypertension and are designated as “HF-PH mice”.\nUsing a mouse model fed a high-fat diet (Research Diets, New Brunswick, NJ) for 16-20 weeks, AKR/J mice (Jackson Laboratories, Bar Harbor, ME) develop obesity, insulin resistance, heart failure with preserved ejection fraction, and pulmonary hypertension. (Meng, et al., 2017; Arwood, et al., 2019)."}, "[7]": {"tested_on": "pulmonary arterial endothelial cells (PAECs)", "assay": "Western blot of mitochondrial marker TOM20 as measure of mitophagy", "type": "cell-based, human", "details": "ECs / PAEC", "description": "Western blot. Cell lysates were resolved on a SDS PAGE pre-cast gel (Invitrogen) and resolved proteins were transferred on to a PVDF membrane for further detection of proteins using specific antibodies. Antibodies for SREBP1 were purchased from Santa Cruz Biotechnology (Cat #sc-365513) and Novus biological (Cat #NB100-2215). SCD antibody was purchased from Santa Cruz Biotechnology (Cat #sc-58420). Tom20 and LAMP1 antibodies were purchased from Cell Signaling (Cat #42406S and 15665S, respectively).\nas §1"}, "[8]": {"details": "5 mg/kg/day IP for the last 4 weeks"}, "[9]": {"details": "10 mg/kg/day IP for the last 2 weeks"}},
  "note": "“Also recorded” adds a separate entry of the source.",
  "data": [
    {"smiles": "CC(C)NC[C@@H](O)COc1cccc2ccccc12", "note": "[R-propranolol]", "values": [
      {"measurement": "RV hypertrophy (RV/(LV+S))", "setting": "[1]; [8]", "result": "trended toward improvement"},
      {"measurement": "RVSP", "setting": "[1]; [8]", "result": "trended toward improvement"},
      {"measurement": "RV hypertrophy (RV/(LV+S))", "setting": "[1]; [9]", "result": "attenuated"},
      {"measurement": "RVSP", "setting": "[1]; [9]", "result": "attenuated"},
      {"measurement": "mitophagy by immunofluorescence (Tom20/Lamp1)", "setting": "[2]", "result": "induce mitophagy; also recorded: Tom20 was mobilized to lysosome"},
      {"measurement": "beta-adrenergic receptor affinity, fold less than propranolol", "setting": "[3]", "result": 100, "unit": "fold"},
      {"measurement": "SCD (SREBP1 target) levels", "setting": "[4]; ECs / PAEC", "result": "elevated"},
      {"measurement": "SREBP1 levels (non-cleaved; decrease indicates cleavage and activation)", "setting": "[4]; ECs / PAEC", "result": "reduce SREBP1 levels"},
      {"measurement": "NCEH1 levels", "setting": "[4]; ECs", "result": "higher"},
      {"measurement": "mitophagy by TEM (bilipid membrane formation around mitochondria)", "setting": "[5]", "result": "promoted mitophagy"},
      {"measurement": "right ventricular systolic pressure", "setting": "[6]", "result": "significantly decreased"},
      {"measurement": "Tom20 levels (mitophagy)", "setting": "[7]", "result": "decreased Tom20 levels; also recorded: lower"}
    ]}
  ]
}
